Source: patent publication US8686011B2, “Inhibitors of 11-β-hydroxy steroid dehydrogenase type 1” (Amgen Inc., priority 2004, dated 2014)

Target: T1, 11β-HSD1 (human enzyme) (Homo sapiens, UniProt P28845)
T1 construct: made in house
Test: Enzyme Assay (SPA, 3H-cortisone, purified HSD-1 enzyme prep), human enzyme
Format: biochemical
Conditions: species of enzyme not given

T1 sequence (P28845 whole entry): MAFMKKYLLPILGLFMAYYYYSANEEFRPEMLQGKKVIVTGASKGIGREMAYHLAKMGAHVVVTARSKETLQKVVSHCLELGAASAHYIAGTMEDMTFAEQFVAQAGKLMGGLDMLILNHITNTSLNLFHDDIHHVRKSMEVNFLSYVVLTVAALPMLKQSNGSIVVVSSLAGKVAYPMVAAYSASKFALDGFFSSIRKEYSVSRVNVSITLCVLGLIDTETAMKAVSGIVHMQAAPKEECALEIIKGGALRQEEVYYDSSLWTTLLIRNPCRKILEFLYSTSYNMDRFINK

Which IC50 does the source give for O=C1N=C(Nc2ccccc2Cl)SC1C1CCCCC1 (centres unmarked) [2-(2-chlorophenylamino)-5-cyclohexylthiazol-4(5H)-one] here?
Its IC50 is < 20 nM.

Which IC50 does the source give for O=C1N=C(Nc2ccccc2Cl)SC1C1CCCC1 (centres unmarked) [2-(2-chlorophenylamino)-5-cyclopentylthiazol-4(5H)-one] here?
Its IC50 is < 20 nM.

With CC1(c2ccncc2)SC(Nc2ccccc2Cl)=NC1=O (centres unmarked) [2-(2-chlorophenylamino)-5-methyl-5-(pyridin-4-yl)thiazol-4(5H)-one] as the compound, how does the IC50 read?
The IC50 was < 20 nM.

Which IC50 does the source give for CC1(C2CCOCC2)SC(Nc2ccccc2Cl)=NC1=O (centres unmarked) [2-(2-chlorophenylamino)-5-methyl-5-(tetrahydro-2H-pyran-4-yl)thiazol-4(5H)-one] here?
Its IC50 is < 20 nM.

Which IC50 does the source give for O=C1N=C(Nc2ccccc2F)SC1[C@H]1CCOC1 (stereo partly drawn) [2-(2-fluorophenylamino)-5-((S)-tetrahydrofuran-3-yl)thiazol-4(5H)-one] here?
The IC50 was < 20 nM.

With CC1(CC(F)(F)F)SC(N[C@@H]2C[C@H]3CC[C@@H]2C3)=NC1=O (stereo partly drawn) [2-((1R,2R,4S)-bicyclo[2.2.1]heptan-2-ylamino)-5-methyl-5-(2,2,2-trifluoroethyl)thiazol-4(5H)-one] as the compound, how does the IC50 read?
Its IC50 is < 20 nM.

With CCCC1(C)SC(N[C@@H]2C[C@H]3CC[C@@H]2C3)=NC1=O (stereo partly drawn) [2-((1R,2R,4S)-bicyclo[2.2.1]heptan-2-ylamino)-5-methyl-5-propylthiazol-4(5H)-one] as the compound, how does the IC50 read?
The IC50 was < 20 nM.

For CC(C)C1SC(Nc2ccccc2Cl)=NC1=O (centres unmarked) [2-((2-chlorophenyl)amino)-5-(1-methylethyl)-1,3-thiazol-4(5H)-one], which IC50 is on record?
Its IC50 is < 20 nM.

For CC1(c2ccccc2)SC(Nc2ccccc2Cl)=NC1=O (centres unmarked) [2-((2-chlorophenyl)amino)-5-methyl-5-phenyl-1,3-thiazol-4(5H)-one], which IC50 is on record?
Its IC50 is < 20 nM.

For O=C1N=C(Nc2ccccc2F)SC12CCCC2 [2-((2-fluorophenyl)amino)-1-thia-3-azaspiro[4.4]non-2-en-4-one], which IC50 is on record?
The IC50 was < 20 nM.

Which IC50 does the source give for Cc1c(Cl)cccc1NC1=NC(=O)C(C(C)C)S1 (centres unmarked) [2-((3-chloro-2-methylphenyl)amino)-5-(1-methylethyl)-1,3-thiazol-4(5H)-one] here?
The IC50 was < 20 nM.

For CC(C)C1(C)SC(NC23CC4CC(CC(F)(C4)C2)C3)=NC1=O (centres unmarked) [2-((3-fluorotricyclo[3.3.1.1˜3,7˜]dec-1-yl)amino)-5-methyl-5-(1-methylethyl)-1,3-thiazol-4(5H)-one], which IC50 is on record?
Its IC50 is < 20 nM.

Which IC50 does the source give for Cc1ccc(F)cc1NC1=NC(=O)C(C(C)C)S1 (centres unmarked) [2-((5-fluoro-2-methylphenyl)amino)-5-(1-methylethyl)-1,3-thiazol-4(5H)-one] here?
Its IC50 is < 20 nM.

Which IC50 does the source give for CC(C)C1(C)SC(N[C@H](C)c2ccc(F)cc2)=NC1=O (stereo partly drawn) [2-((R)-1-(4-fluorophenyl)ethylamino)-5-isopropyl-5-methylthiazol-4(5H)-one] here?
The IC50 was < 20 nM.

For C[C@H](NC1=NC(=O)C(C)(c2ccncc2)S1)c1ccccc1F (stereo partly drawn) [2-((S)-1-(2-fluorophenyl)ethylamino)-5-methyl-5-(pyridin-4-yl)thiazol-4(5H)-one], which IC50 is on record?
The IC50 was < 20 nM.

Which IC50 does the source give for C[C@H](NC1=NC(=O)C(C)(c2ccncc2)S1)c1ccc(F)cc1 (stereo partly drawn) [2-((S)-1-(4-fluorophenyl)ethylamino)-5-methyl-5-(pyridin-4-yl)thiazol-4(5H)-one] here?
The IC50 was < 20 nM.

For CC(C)C1(C)SC(N[C@@H](C)C2CCCCC2)=NC1=O (stereo partly drawn) [2-((S)-1-cyclohexylethylamino)-5-isopropyl-5-methylthiazol-4(5H)-one], which IC50 is on record?
Its IC50 is < 20 nM.

With O=C1N=C(NCC2CCCCC2)SC1[C@H]1CCOC1 (stereo partly drawn) [2-(cyclohexylmethylamino)-5-(S)-tetrahydrofuran-3-yl)thiazol-4(5H)-one] as the compound, how does the IC50 read?
The IC50 was < 20 nM.

With CC1([C@H]2CCOC2)SC(NCC2CCCCC2)=NC1=O (stereo partly drawn) [2-(cyclohexylmethylamino)-5-methyl-5-((S)-tetrahydrofuran-3-yl)thiazol-4(5H)-one] as the compound, how does the IC50 read?
Its IC50 is < 20 nM.

Which IC50 does the source give for O=C1N=C(Nc2ccccc2F)SC1C1CCCC1 (centres unmarked) [5-cyclopentyl-2-(2-fluorophenylamino)thiazol-4(5H)-one] here?
The IC50 was < 20 nM.

For CCC1(C)SC(NC23CC4CC(CC(C4)C2)C3)=NC1=O (centres unmarked) [5-ethyl-5-methyl-2-(tricyclo[3.3.1.1˜3,7˜]dec-1-ylamino)-1,3-thiazol-4(5H)-one], which IC50 is on record?
Its IC50 is < 20 nM.

Which IC50 does the source give for CC1(c2ccncc2)SC(Nc2ccccc2C(F)(F)F)=NC1=O (centres unmarked) [5-methyl-5-(pyridin-4-yl)-2-(2-(trifluoromethyl)phenylamino)thiazol-4(5H)-one] here?
Its IC50 is < 20 nM.

Which IC50 does the source give for CC(C)[C@@]1(C)SC(Nc2ccccc2Cl)=NC1=O [(5R)-2-((2-chlorophenyl)amino)-5-methyl-5-(1-methylethyl)-1,3-thiazol-4(5H)-one] here?
Its IC50 is < 20 nM.

With C[C@@]1(c2ccccc2)SC(Nc2ccccc2Cl)=NC1=O [(5S)-2-((2-chlorophenyl)amino)-5-methyl-5-phenyl-1,3-thiazol-4(5H)-one] as the compound, how does the IC50 read?
The IC50 was < 20 nM.

Which IC50 does the source give for CO[C@@H]1CCC[C@@]2(C1)SC(NC1CCCCCCC1)=NC2=O [(5S,7R)-2-(cyclooctylamino)-7-(methyloxy)-1-thia-3-azaspiro[4.5]dec-2-en-4-one] here?
Its IC50 is < 20 nM.

System: intraocular pressure
Test: not given
Conditions: ingestion, normal subjects; cited from earlier work

For CC1(C)[C@@H](OC(=O)CCC(=O)O)CC[C@]2(C)[C@H]3C(=O)C=C4[C@@H]5C[C@@](C)(C(=O)O)CC[C@]5(C)CC[C@@]4(C)[C@]3(C)CC[C@@H]12 [carbenoxolone], which “reduction of intraocular pressure” value is on record?
Its value is 20%.
